row,Structure (SMILES),melting point
1,Cc1ccc(-c2nc(Oc3ccccc3)nc(-c3ccc(C)cc3C)n2)c(C)c1,96 to 98 °C
2,O=C1CCOc2ccc(-c3ccccc3)cc21,74 to 75 °C
3,CC(C)c1ncc(CN2C(=O)C3(COc4cc5c(cc43)OCO5)c3cccc(C(F)(F)F)c32)s1 (configuration not stated),101 to 103 °C
4,CCOc1cc2c(cc1OC)C(c1ccc(C(=O)N(C(C)C)C(C)C)cc1)=N[C@@H]1CCSC[C@H]21,84 to 89 °C
5,c1coc(CNCc2ccc(-c3cc4ncnc(Nc5ccc6[nH]ccc6c5)c4s3)cc2)c1,125 to 134 °C
6,CCCCC1(CCCC)N[C@@H](c2nc(-c3ccccc3)c[nH]2)Cc2c1sc1ccccc21,198 to 200 °C
7,CN1C(=O)C2(CCN(CC(O)C3COc4ccccc4O3)CC2)c2ccccc21 (configuration not stated),113 to 128 °C
8,FC(F)(F)c1cccc(OC(c2ccc(Cl)cc2)c2ncco2)c1 (configuration not stated),66 to 67 °C
9,CC1(C)CCC(C)(C)c2cc(-c3cc(-c4ccc(C(=O)OCc5ccccc5)cc4)ccc3O)ccc21,90 to 91 °C
10,O=C1CCCNC12CCCCC2,55 °C
11,ON=C1Cc2ccccc2C(=NO)c2ccccc21,220 to 221 °C
12,CCCCCCCCCCCCCCCC(=O)Oc1ccc(C(O)C(C)N2CCC(Cc3ccccc3)CC2)cc1 (configuration not stated),75 to 77 °C
13,C1COC(NC(C2CC2)C2CC2)=N1,105 to 106 °C
14,CC(C)OCCOc1ccc(-c2ccc3c(c2)C=C(C(=O)Nc2ccc(CN(C)C4CCOCC4)cc2)CCS3(=O)=O)cc1,214 to 215 °C
15,COC(=O)c1cc(C#N)cc2c1OC(c1ccccc1)(c1ccccc1)O2,141 °C
16,CN(C)c1ccc(C=CC(=O)N2CCc3c([nH]c4ccccc34)C2c2ccc3c(c2)CCO3)cn1 (configuration not stated),171 °C
17,COc1ccc2cc(CCC3(C)OCCO3)cc(F)c2c1,51 to 53 °C
18,COc1cc(CCN2CCC[C@H](C(C#N)(c3ccccc3)c3ccccc3)C2)ccc1O,159 to 160 °C
19,COc1cc(OC)nc(Oc2cccc(O)c2C=O)n1,82 °C
20,CC1C(=O)N(C)C(=O)N(C)C1=O,83 to 85 °C
21,Oc1ccc2c(-c3ccccc3)coc2c1,138 to 143 °C
22,Nc1ncnc2c1c(-c1ccc(Oc3ccccc3)cc1)cn2C1CCC2(CC1)OCCO2,193 to 194 °C

row,Structure (SMILES),melting point
1,CCCCCCCCCCCCCCCC(Br)CC(=O)O (configuration not stated),47 to 51 °C
2,CN(C)n1cc(-c2ccccc2)c(=O)c(-c2ccccc2)c1,143 °C
3,CN1CCN(c2ccc(C(=O)N3CCCCc4ccccc43)c(Cl)c2)CC1,138 to 140 °C
4,CCOC(=O)CS(=O)(=O)Cl,74 to 77 °C
5,O=C1CCCc2c1c1cc(Cl)ccc1n2Cc1ccc(F)cc1,207 to 208 °C
6,CCC(CC)Nc1nc(-c2cc(OC)c(OC)c(OC)c2)nc2sc(C#N)c(C)c12,226 to 228 °C
7,CC1=C(c2ccccc2)C(c2ccccc2Cl)C([N+](=O)[O-])=C(C)N1 (configuration not stated),232 °C
8,COc1ccc(P2(=O)c3ccccc3CN2c2ccccc2)cc1OC (configuration not stated),84 to 86 °C
9,COc1cc2c(Oc3ccc4[nH]cc(C)c4c3)ncnc2cc1OCCCN1CCCC1,75 to 77 °C
10,CCOc1cc2c(Cl)cc(C)nc2nc1C,144 to 147 °C
11,COc1ccc2c(c1)cc(Cc1cc3ccccc3n1S(=O)(=O)c1ccccc1)n2S(=O)(=O)c1ccccc1,98 to 100 °C
12,CCCOc1cc2nc(Cl)nc(Cl)c2cc1OC,118 to 120 °C
13,C#Cc1c(C#N)nn(-c2c(Cl)cc(C(F)(F)F)cc2Cl)c1N(C)C,145 to 147 °C
14,COc1ccc(C2(c3nc(N)nc(N)n3)CCCCC2)cc1,159 to 163 °C
15,CC1(C)CC(=C(c2ccc(O)cc2)c2ccc(-c3ccccc3CO)cc2)CC(C)(C)C1,171 to 172 °C
16,ON=C1CCCc2c1ccc1ccccc21,174 to 175 °C
17,O=C(NC(=O)c1c(F)cccc1F)Nc1cc(Cl)c(S(=O)C(F)(F)C(F)F)cc1Cl (configuration not stated),216 to 220 °C
18,COC(C(=O)O)c1ccc2c(c1)C(C)(C)CCC2(C)C (racemic),135 to 136 °C
19,O=[N+]([O-])c1ccccc1N1CCN(Cc2ccccc2)CCN1,90 to 92 °C
20,O=C(O)c1ccc(OCCNC(=O)C2Cc3ccccc3N2S(=O)(=O)c2ccc(-c3cc(C(F)(F)F)ccc3Cl)cc2)cc1Cl (configuration not stated),106 to 112 °C
21,CN1CCN(c2ccccc2CO)[C@@H]2c3ccccc3C[C@H]21 (relative stereo),166 to 167 °C
22,COc1ccc2nc3c(cc2c1)c(Cl)nn3C,138 to 139 °C

# Second part, the compound after the results:
row,melting point,Structure (SMILES)
1,189 to 191 °C,CCOc1cc2cc(C(=O)N3CC(CCl)c4c3cc(N3C(=O)c5ccccc5C3=O)c3ncccc43)[nH]c2c(OCC)c1OCC (configuration not stated)
2,182 to 185 °C,CCc1cn(C2CC(O)C(CN(C)C(=O)Cc3ccccc3Br)O2)c(=O)[nH]c1=O (configuration not stated)
3,195 to 197 °C,CN(C)CCNC(=O)Cn1c(-c2ccc(Br)cc2)nc2cccnc21
4,228 °C,Cc1ccc(NC(=O)c2cccc(N(C)C)c2)cc1Nc1ncc(-c2cccnc2)o1
5,77 to 79 °C,CC(=O)c1nn(-c2c(Cl)cc(C(F)(F)F)cc2Cl)c(N)c1S(C)(=O)=O
6,248 to 250 °C,Cc1ccc(NC(=O)c2cn(-c3ccccc3)c3ccccc3c2=O)nc1
7,269 to 274 °C,COCC1COc2cc3ncnc(Nc4cc(Cl)cc(Cl)c4)c3cc2O1 (configuration not stated)
8,246 to 248 °C,NCc1cccnc1C1CCN(c2cc3c(cc2F)c(=O)c(C(=O)O)cn3C2CC2)C1 (configuration not stated)
9,170 to 171 °C,COC(=O)c1ccc(-c2nc(COc3ccc(CO)cc3OC)c(C)o2)cc1
10,144 to 147 °C,Cc1ccc2c(c1)N(CC(=O)c1ccccc1C)C(=O)C(NC(=O)Nc1cccc(C(=O)O)c1)CN2C(=O)OCc1ccccc1 (configuration not stated)
11,111 to 113 °C,CSC1=Nc2cc(Cl)ccc2Nc2cscc21
12,80 to 82 °C,CN(C)c1cc(CO)ncc1F
13,105 to 110 °C,NC(=S)c1ccc(C(=O)NCc2ccc(N3CC(C(=O)O)OC3=O)cc2)cc1 (configuration not stated)
14,142 to 143 °C,COc1cccc(C(=O)Nc2ccc3c(c2)CCCC3=O)c1
15,70 to 79 °C,COC(=O)c1ccc(OCCNC(=O)C2Cc3ccccc3N2S(=O)(=O)c2ccc(-c3ccc(F)cc3)cc2)cc1Cl (configuration not stated)
16,175 °C,CCC(Cc1c(C)cc(C(C)(C)C)c(O)c1C)(C(=O)OC1CC(C)(C)NC(C)(C)C1)C(=O)OC1CC(C)(C)NC(C)(C)C1
17,125 to 126 °C,CCCSc1sc(C(=O)OCC)c2c1-c1nc(-c3ccccc3)sc1CC2
18,97 to 99 °C,CC1(C)CC(O)c2cc(Br)ccc2O1 (configuration not stated)
19,207 to 208 °C,CC(=O)NC(C)Cc1ccc(C=CC(=O)O)cc1 (configuration not stated)
20,240 °C,O=C(C1CCCCC1)C1CCN(Cc2cc(O)c(O)cc2[N+](=O)[O-])CC1
21,159 to 161 °C,Cc1cccc(C)c1N(CCCC(=O)N[C@@H](C)C(=O)O)C(=O)c1ccc(Cl)cc1
22,78 to 80 °C,O=c1cccccc1N1CCN(Cc2ccccc2)CC1
23,113 to 122 °C,Cc1cc(N)c(C)c(Cl)c1Oc1ccc(C(=O)c2ccc(Cl)cc2)cc1
24,162 to 168 °C,CC(C)(C)OC(=O)CON=C(C(=O)O)c1cccc(NC=O)n1
25,208 to 209 °C,CS(=O)(=O)Nc1ccc(C23CC2C(=O)NC3=O)cc1 (configuration not stated)
26,137 to 138 °C,Nc1nc(=O)n(C2OC(CO)CC2O)cc1F (configuration not stated)
27,224 °C,CC(=O)N1C(=O)N(c2cc(Cl)cc(Cl)c2)C(=O)[C@]12CN(Cc1ccccc1)C[C@H]2c1ccc(C#N)cc1 (relative stereo)

row,melting point,Structure (SMILES)
1,210 to 212 °C,COC(=O)C1=C(C)NC(C)=C(C(=O)OC)C1c1cccc(Nc2c(NCCCN3CCN(C4CCCCC4)CC3)c(=O)c2=O)c1
2,129 to 131 °C,O=C(NCCNC(=O)C1CCNC1)OCc1ccccc1 (configuration not stated)
3,90 to 91 °C,CCOC(=O)C1OC1C(=O)NCc1ccccc1 (configuration not stated)
4,261 to 263 °C,Cc1cc(C)nc(S(=O)(=O)Nc2c(Cl)cccc2Cl)n1
5,65 to 69 °C,CCOc1ccc(C2=NN(c3ccc(S(=O)(=O)O)cc3)C(=O)[C@H]3CC=CC[C@@H]23)cc1OCC (relative stereo)
6,204 °C,Cn1nc(-c2ccc(Cl)cc2F)cc1O
7,172 to 173 °C,Cn1c2cc(Cl)ccc2c(=O)c2cccn21
8,76 to 78 °C,Cc1cccc(C(=O)Cc2ccnc(-c3ccc(OC(F)(F)F)cc3)c2)n1
9,89 to 90 °C,COC(=O)c1ccc(C#CC(=O)c2ccc3c(c2)CCCC3(C)C)cc1O
10,105 °C,COc1ccccc1N1CCN(C(=O)[C@@H](Cc2ccncc2)NC(=O)OC(C)(C)C)CC1
11,231 to 232 °C,Cc1ccc(S(=O)(=O)NCCCn2c(CCO)nc3c(N)nc4ccccc4c32)cc1
12,149 to 150 °C,CC(O)Cc1cccc(S(N)(=O)=O)c1 (configuration not stated)
13,44.5 to 46.5 °C,C[C@@]1(CO)CCC(=O)O1
14,208 to 210 °C,CCC(=O)N1CCNC1=NC#N
15,136 to 138 °C,CN(C)C(=O)Nc1ccc(S(=O)(=O)CCc2ccccc2)c(Cl)c1
16,163 to 174 °C,COc1cc2c(cc1Nc1ncc(Cl)c(Nc3cc(C(N)=O)ccc3OC)n1)CCN(CC(=O)N(C)C)CC2
17,154 to 155 °C,CCCOC(=O)Nc1ccc(NCc2cc(Cl)cc(Cl)c2)cc1N
18,186 °C,Cc1ccc(NC(=O)OCC(C)C)cc1Nc1ncc(-c2cccnc2)o1
19,185 to 187 °C,Cc1nc2ccccc2n(-c2ccc(Cl)cc2)c1=O
20,92 to 93 °C,CC1=C(C(=O)OC(CN2CCCCC2)c2ccccc2)C(c2cccc([N+](=O)[O-])c2)n2nccc2N1 (configuration not stated)
21,81 to 82 °C,CCOC(=O)c1nc2c(C)nn(CC)c2nc1OCC
22,106 to 108 °C,CN(C)C1CCN(c2nccc(Oc3ccc(NC(=O)c4cc(F)cc(N5CCOCC5)c4)c4ccccc34)n2)C1 (configuration not stated)
23,> 320 °C,O=C1c2[nH]c3cc(-c4ccccc4)nn3c(=O)c2CCN1C1CCCCC1
24,130 °C,CC1=C(C(=O)OCC(C)C)C(c2cccc([N+](=O)[O-])c2)c2c(N)nc(N)nc2N1 (configuration not stated)
25,149 °C,Cc1nn(C(=O)NCC2CC2(Cl)Cl)c(=O)n1N (configuration not stated)
26,> 295 °C,Cn1c2ccccc2c2oc(C(N)=O)cc(=O)c21

# Source: a melting point compilation (Tetko et al.; mined from patent text by program, amines drawn as free bases though some values may be those of a salt)
